Results as given in patent publication US5004612A, “Pharmaceutical compositions comprising esters or amides as active ingredients” (priority 1987, dated 1991).
Read-outs that look alike come from different tables or passages of the source. Each block holds one compound with its values, some of them ahead of it.

Experiments:
[1] = Water solubility (remark on administration); assay type: physicochemical
in vivo [2] = assay: in vivo; parameters: species or system male Sprague-Dawley rats; conditions: rat, BA
Protocol: (§1) The experiment was carried out according to the Yasuhara's method using intestinal loop in rats [see Journal of Pharmacobio-Dynamics, 2, 251 (1979)]. That is, male Sprague-Dawley rats weighing 220-260 g were fasted an overnight prior to surgery; however drinking water was readily accessible. The rats were anesthetized by sodium pentobarbital using an intraperitoneal injection of 50 mg/kg. The small intestine was exposed by a midline abdominal incision. The intestinal loop studied was used approximately 15 cm of the duodenal-jejunal site that was approximately 2 cm off the outlet of bile duct.
The suspension or solution containing active ingredients was directly administered into the loop and the both ends of the loop were closed. […] The active ingredient and the degradation products in sample were determined with high pressure liquid chromatography. […]
When Experiment 1 was carried out by using Compound A and D, blood was collected after a given period of time (0, 15, 30, 60 and 120 minutes after). The concentration of the active ingredient in blood was determined with high pressure liquid chromatography, and Area Under the plasma concentration-time Curve (AUC) was calculated and then bioavailability (BA) was calculated according to the following formula by comparing with AUC in intravenous administration. […]

in vivo [3] = assay: in vivo; parameters: species or system male Beagle dogs; conditions: dog, plasma, po, read-out: BA
Protocol: When Experiment 1 was carried out by using Compound A and D, blood was collected after a given period of time (0, 15, 30, 60 and 120 minutes after). The concentration of the active ingredient in blood was determined with high pressure liquid chromatography, and Area Under the plasma concentration-time Curve (AUC) was calculated and then bioavailability (BA) was calculated according to the following formula by comparing with AUC in intravenous administration. [formula] [AUCid]: AUC in intraduodenal administration [AUCiv]: AUC in intravenous administration
Each one soft capsule prepared in Reference Example 1, 2, 3, 4, 5 and 6 (used only a suspension of Example 2 (compound B) in Reference Example 4,5 and 6) was administered orally with 50 ml of water to six male Beagle dogs fasted an overnight (aged one to two and weighing 10±1 kg). By the same procedures as described in Experiment 2, the concentration of the active ingredient in blood, AUC, and then BA were calculated.
^1 Comparison: Compound A or Compound B (10 mg/5 ml) of water/kg
animal body weight) was orally administered.

in vivo [4] = assay: in vivo; parameters: species or system male Sprague-Dawley rats; conditions: rat, 5 mg/0.5 ml/animal, read-out: Remaining ratio of the active ingredient in small intestine; for remaining at 5 min: 5 minutes after; for remaining at 0.25 h: 15 minutes after
Protocol: The inhibitory effect of MCG on the degradation of esters of guanidinobenzoic acid in small intestine
as §1
The suspension or solution containing active ingredients was directly administered into the loop and the both ends of the loop were closed. The experiment with Compound G and I was carried out further by adding pancreatic juice and bile of other rats into the loop by cannula. After a given period of time, the loop was cut out. The contents were washed out with physiological salt solution and/or ethanol, and thereto was added a mixture of 0.1N aqueous methanesulfonic acid, 1,2-dichloroethane and isopropanol. The obtained mixture was centrifuged and the resulting supernatant was used as a sample. In the case of Compound D to H, the washings were directly used as a sample. The active ingredient and the degradation products in sample were determined with high pressure liquid chromatography.
Compound A: p-(p-guanidinobenzoyloxy)phenylacetic acid N,N-dimethylcarbamoylmethyl ester methanesulfonate [drawing 2] Compound B: p-guanidinobenzoic acid 6-amidinonaphth-2-yl ester dimethanesulfonate [drawing 3] Compound C: p-guanidinobenzoic acid methyl ester methanesulfonate [drawing 4] Compound D: 7-(3-tosylaminobicyclo[2.2.1]heptan-2-yl)-5Z-heptenoic acid ethyl ester [drawing 5] Compound E: salicylic acid ethyl ester [drawing 6] Compound F: aspirin [drawing 7] Compound G: 6-keto-16S,18S-ethano-20-ethyl-PGE1 leucine amide [drawing 8] Compound H: N-[3-[N-(4-chlorobenzyl)carbamoyl]propanoyl]-L-prolinal [drawing 9] Compound I: 7-(3-tosylaminobicyclo[2.2.1]heptan-2-yl)-5Z-heptenoic acid glycine amide [drawing 10] (wherein G is a guanidino group.)
H2 O: dissolving in the ratio of 5 mg of active ingredient/0.5 ml of water/animal.
MCM8(glyceryl monocaprylate): suspending in the ratio of 5 mg of active ingredient/0.5 ml of MCM8/animal.
MCT8(glyceryl tricaprylate): suspending in the ratio of 5 mg of active ingredient/0.5 ml of MCT8/animal.
2. 0.5 ml of physiological salt solution (referred to "SALT") for Compound D instead of water, because of its water-insoluble character.
3. 0.1 mg of Compound G were used because of its strong pharmacological effect, and isotonic phosphate buffer solution (referred to "PHOS") (pH 6.5) instead of water was used because of its water-insoluble character.

solubility in water [1]: poor solubility
Structure (SMILES): COC(=O)c1ccc(NC(=N)N)cc1.CS(=O)(=O)O [Compound C, p-guanidinobenzoic acid methyl ester methanesulfonate]

solubility in water [1]: water-insoluble
Structure (SMILES): CCOC(=O)CCC/C=C\CC1C2CCC(C2)C1NS(=O)(=O)c1ccc(C)cc1 (stereo not drawn) [Compound D, 7-(3-tosylaminobicyclo[2.2.1]heptan-2-yl)-5Z-heptenoic acid ethyl ester]

bioavailability (in vivo [2]): 3% | bioavailability (in vivo [3]; 10 mg/kg, Comparison A (10 mg/5 ml of water/kg body weight)): 6.3 ± 2.4% | bioavailability (in vivo [3]; Reference Example 1 (soft capsule of Example 1 suspension)): 10.9 ± 4.3% | bioavailability (in vivo [3]; Reference Example 2 (enteric-coated soft capsule, carboxymethylethyl cellulose)): 18.4 ± 7.3% | bioavailability (in vivo [3]; Reference Example 3 (enteric-coated soft capsule, hydroxypropylmethyl cellulose acetate succinate)): 17.2 ± 11.5%
Structure (SMILES): CN(C)C(=O)COC(=O)Cc1ccc(OC(=O)c2ccc(NC(=N)N)cc2)cc1.CS(=O)(=O)O [Compound A, p-(p-guanidinobenzoyloxy)phenylacetic acid N,N-dimethylcarbamoylmethyl ester methanesulfonate]

bioavailability (in vivo [3]; 10 mg/kg, Comparison B (10 mg/5 ml of water/kg body weight)): 1.7 ± 1.2% | bioavailability (in vivo [3]; Reference Example 4 (soft capsule of Example 2 suspension)): 3.2 ± 1.7% | bioavailability (in vivo [3]; Reference Example 5 (enteric-coated soft capsule, as Reference Example 2)): 5 ± 2.5% | bioavailability (in vivo [3]; Reference Example 6 (enteric-coated soft capsule, as Reference Example 3)): 5.1 ± 2.1% | remaining at 5 min (in vivo [4]; H2O (COMPARISON)): 68.8 ± 1.7% | remaining at 0.25 h (in vivo [4]; H2O (COMPARISON)): 27.5 ± 5.2% | remaining at 5 min (in vivo [4]; MCM8 (INVENTION)): 90 ± 15.6% | remaining at 0.25 h (in vivo [4]; MCM8 (INVENTION)): 70.5 ± 12.1% | remaining at 5 min (in vivo [4]; MCT8 (INVENTION)): 80 ± 3.2% | remaining at 0.25 h (in vivo [4]; MCT8 (INVENTION)): 60.8 ± 7.5%
Structure (SMILES): CS(=O)(=O)O.CS(=O)(=O)O.N=C(N)Nc1ccc(C(=O)Oc2ccc3cc(C(=N)N)ccc3c2)cc1 [Compound B, p-guanidinobenzoic acid 6-amidinonaphth-2-yl ester dimethanesulfonate]

solubility in water [1]: water-insoluble
Structure (SMILES): CCCC[C@H]1CC[C@H]([C@H](O)/C=C/[C@H]2[C@H](O)CC(=O)[C@@H]2CC(=O)CCCCC(=O)NC(CC(C)C)C(=O)O)C1 (stereo partly drawn) [Compound G, 6-keto-16S,18S-ethano-20-ethyl-PGE1 leucine amide]
